# Measured values published in the supplement of paper PMC10307832.
# How the values were obtained:
# Experiment in all cases: relative viability (nuclei count vs DMSO), 5 days (fraction); higher = more cells survive
# [1] = compound: Cn1cc(-c2cnn3c(N)c(Br)c([C@@H]4CCCNC4)nc23)cn1
# Method in brief: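 In 1536-well plates, lung cancer cell lines rested overnight at 37 °C before five library-drug doses (not always all listed), √10 apart, were pinned onto vehicle-anchored plates. Nuclei were counted with MetaXpress from 4× Hoechst images taken after 5 days without medium change. Viability compares treated-well with vehicle-well nuclei as a median over plates, and plates needed control CV below 25% plus at least one doubling to pass.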
# [2] = compound: Cn1cc(-c2cnn3c(N)c(Br)c([C@@H]4CCCNC4)nc23)cn1 + CC(C)C[C@H](NC(=O)[C@H](Cc1ccccc1)NC(=O)c1cnccn1)B(O)O [Bortezomib] (partner 0.002 µM)
# Method in brief: (§1)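 Lung cancer cell lines were pin-tool dosed in 1536-well plates on the day after seeding, with either a lone drug or a fixed anchor-drug dose plus five library-drug doses (not always all listed) in √10 steps. Nuclei were counted on 4× images after 5 days. Relative viability is the ratio of treated-well to vehicle-well nuclei counts, with each value a median of duplicate plates.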
# [3] = compound: Cn1cc(-c2cnn3c(N)c(Br)c([C@@H]4CCCNC4)nc23)cn1 + O=C(c1cc(Cc2n[nH]c(=O)c3ccccc23)ccc1F)N1CCN(C(=O)C2CC2)CC1 [Olaparib] (partner 8 µM)
# Method in brief: as §1
# [4] = compound: Cn1cc(-c2cnn3c(N)c(Br)c([C@@H]4CCCNC4)nc23)cn1 + CS(=O)(=O)CCNCc1ccc(-c2ccc3ncnc(Nc4ccc(OCc5cccc(F)c5)c(Cl)c4)c3c2)o1 [Lapatinib] (partner 2 µM)
# Method in brief: as §1
# [5] = compound: Cn1cc(-c2cnn3c(N)c(Br)c([C@@H]4CCCNC4)nc23)cn1 + COc1cc2c(Oc3ccc(NC(=O)C4(C(=O)Nc5ccc(F)cc5)CC4)cc3F)ccnc2cc1OCCCN1CCOCC1 [Foretinib] (partner 0.25 µM)
# Method in brief: as §1
# [6] = compound: Cn1cc(-c2cnn3c(N)c(Br)c([C@@H]4CCCNC4)nc23)cn1 + C[C@@H](Oc1cc(-c2cnn(C3CCNCC3)c2)cnc1N)c1c(Cl)ccc(F)c1Cl [Crizotinib] (partner 1 µM)
# Method in brief: as §1
# [7] = compound: Cn1cc(-c2cnn3c(N)c(Br)c([C@@H]4CCCNC4)nc23)cn1 + CC1(C)CCC(c2ccc(Cl)cc2)=C(CN2CCN(c3ccc(C(=O)NS(=O)(=O)c4ccc(N[C@H](CCN5CCOCC5)CSc5ccccc5)c(S(=O)(=O)C(F)(F)F)c4)cc3)CC2)C1 [Navitoclax] (partner 0.5 µM)
# Method in brief: as §1
# [8] = compound: Cn1cc(-c2cnn3c(N)c(Br)c([C@@H]4CCCNC4)nc23)cn1 + C[C@]1(O)C[C@@H](c2nc(-c3ccc4ccc(-c5ccccc5)nc4c3)c3c(N)nccn32)C1 [Linsitinib] (partner 1 µM)
# Method in brief: as §1
# [9] = compound: Cn1cc(-c2cnn3c(N)c(Br)c([C@@H]4CCCNC4)nc23)cn1 + Cc1nc(NC(=O)N2CCC[C@H]2C(N)=O)sc1-c1ccnc(C(C)(C)C(F)(F)F)c1 [Alpelisib] (partner 2 µM)
# Method in brief: as §1
# [10] = compound: Cn1cc(-c2cnn3c(N)c(Br)c([C@@H]4CCCNC4)nc23)cn1 + CS(=O)(=O)N1CCN(Cc2cc3nc(-c4cccc5[nH]ncc45)nc(N4CCOCC4)c3s2)CC1 [Pictilisib] (partner 1 µM)
# Method in brief: as §1
# [11] = compound: Cn1cc(-c2cnn3c(N)c(Br)c([C@@H]4CCCNC4)nc23)cn1 + N=C(N)NC(=N)NCCc1ccccc1 [Phenformin] (partner 250 µM)
# Method in brief: as §1
# [12] = compound: Cn1cc(-c2cnn3c(N)c(Br)c([C@@H]4CCCNC4)nc23)cn1 + Nc1ncn([C@H]2C[C@H](O)[C@@H](CO)O2)c(=O)n1 [Decitabine] (partner 2 µM)
# Method in brief: as §1
cell line,measurement,setting,value
Calu-6,relative viability,[1]; 0.05 µM,1.06
same,relative viability,[1]; 0.1581 µM,0.905
same,relative viability,[1]; 0.5 µM,0.828
same,relative viability,[1]; 1.581 µM,0.438
same,relative viability,[1]; 5 µM,0.219
same,relative viability,[2]; first compound 0.05 µM,1.17
same,relative viability,[2]; first compound 0.1581 µM,0.733
same,relative viability,[2]; first compound 0.5 µM,0.685
same,relative viability,[2]; first compound 1.581 µM,0.363
same,relative viability,[2]; first compound 5 µM,0.188
same,relative viability,[3]; first compound 0.05 µM,0.604
same,relative viability,[3]; first compound 0.1581 µM,0.521
same,relative viability,[3]; first compound 0.5 µM,0.481
same,relative viability,[3]; first compound 1.581 µM,0.251
same,relative viability,[3]; first compound 5 µM,0.168
same,relative viability,[4]; first compound 0.05 µM,1.2
same,relative viability,[4]; first compound 0.1581 µM,0.745
same,relative viability,[4]; first compound 0.5 µM,0.678
same,relative viability,[4]; first compound 1.581 µM,0.329
same,relative viability,[4]; first compound 5 µM,0.193
same,relative viability,[5]; first compound 0.05 µM,0.879
same,relative viability,[5]; first compound 0.1581 µM,0.876
same,relative viability,[5]; first compound 0.5 µM,0.758
same,relative viability,[5]; first compound 1.581 µM,0.319
same,relative viability,[5]; first compound 5 µM,0.134
same,relative viability,[6]; first compound 0.05 µM,0.964
same,relative viability,[6]; first compound 0.1581 µM,0.643
same,relative viability,[6]; first compound 0.5 µM,0.603
same,relative viability,[6]; first compound 1.581 µM,0.253
same,relative viability,[6]; first compound 5 µM,0.167
same,relative viability,[7]; first compound 0.05 µM,0.997
same,relative viability,[7]; first compound 0.1581 µM,0.597
same,relative viability,[7]; first compound 0.5 µM,0.68
same,relative viability,[7]; first compound 1.581 µM,0.211
same,relative viability,[7]; first compound 5 µM,0.146
same,relative viability,[8]; first compound 0.05 µM,0.898
same,relative viability,[8]; first compound 0.1581 µM,1.1
same,relative viability,[8]; first compound 0.5 µM,0.945
same,relative viability,[8]; first compound 1.581 µM,0.52
same,relative viability,[8]; first compound 5 µM,0.176
same,relative viability,[9]; first compound 0.05 µM,0.98
same,relative viability,[9]; first compound 0.1581 µM,0.82
same,relative viability,[9]; first compound 0.5 µM,0.883
same,relative viability,[9]; first compound 1.581 µM,0.379
same,relative viability,[9]; first compound 5 µM,0.182
same,relative viability,[10]; first compound 0.05 µM,0.935
same,relative viability,[10]; first compound 0.1581 µM,0.605
same,relative viability,[10]; first compound 0.5 µM,0.419
same,relative viability,[10]; first compound 1.581 µM,0.212
same,relative viability,[10]; first compound 5 µM,0.194
A549,relative viability,[1]; 0.05 µM,1.01
same,relative viability,[1]; 0.1581 µM,1.07
same,relative viability,[1]; 0.5 µM,0.946
same,relative viability,[1]; 1.581 µM,0.847
same,relative viability,[1]; 5 µM,0.813
same,relative viability,[3]; first compound 0.05 µM,0.483
same,relative viability,[3]; first compound 0.1581 µM,0.35
same,relative viability,[3]; first compound 0.5 µM,0.352
same,relative viability,[3]; first compound 1.581 µM,0.301
same,relative viability,[3]; first compound 5 µM,0.166
same,relative viability,[4]; first compound 0.05 µM,1.03
same,relative viability,[4]; first compound 0.1581 µM,1.11
same,relative viability,[4]; first compound 0.5 µM,0.909
same,relative viability,[4]; first compound 1.581 µM,0.795
same,relative viability,[4]; first compound 5 µM,0.643
same,relative viability,[5]; first compound 0.05 µM,1.03
same,relative viability,[5]; first compound 0.1581 µM,1.2
same,relative viability,[5]; first compound 0.5 µM,0.93
same,relative viability,[5]; first compound 1.581 µM,0.664
same,relative viability,[5]; first compound 5 µM,0.711
same,relative viability,[6]; first compound 0.05 µM,0.783
same,relative viability,[6]; first compound 0.1581 µM,0.962
same,relative viability,[6]; first compound 0.5 µM,0.778
same,relative viability,[6]; first compound 1.581 µM,0.531
same,relative viability,[6]; first compound 5 µM,0.492
same,relative viability,[11]; first compound 0.05 µM,0.158
same,relative viability,[11]; first compound 0.1581 µM,0.907
same,relative viability,[11]; first compound 0.5 µM,0.215
same,relative viability,[11]; first compound 1.581 µM,0.149
same,relative viability,[11]; first compound 5 µM,0.115
same,relative viability,[7]; first compound 0.05 µM,1.25
same,relative viability,[7]; first compound 0.1581 µM,1.3
same,relative viability,[7]; first compound 0.5 µM,1.14
same,relative viability,[7]; first compound 1.581 µM,0.916
same,relative viability,[7]; first compound 5 µM,0.917
same,relative viability,[8]; first compound 0.05 µM,0.653
same,relative viability,[8]; first compound 0.1581 µM,0.664
same,relative viability,[8]; first compound 0.5 µM,0.48
same,relative viability,[8]; first compound 1.581 µM,0.588
same,relative viability,[8]; first compound 5 µM,0.43
same,relative viability,[12]; first compound 0.05 µM,0.323
same,relative viability,[12]; first compound 0.1581 µM,0.281
same,relative viability,[12]; first compound 0.5 µM,0.279
same,relative viability,[12]; first compound 1.581 µM,0.278
same,relative viability,[12]; first compound 5 µM,0.116
same,relative viability,[9]; first compound 0.05 µM,0.659
same,relative viability,[9]; first compound 0.1581 µM,0.822
same,relative viability,[9]; first compound 0.5 µM,0.653
same,relative viability,[9]; first compound 1.581 µM,0.752
same,relative viability,[9]; first compound 5 µM,0.495
same,relative viability,[10]; first compound 0.05 µM,0.503
same,relative viability,[10]; first compound 0.1581 µM,0.606
same,relative viability,[10]; first compound 0.5 µM,0.434
same,relative viability,[10]; first compound 1.581 µM,0.284
same,relative viability,[10]; first compound 5 µM,0.307
